Laboratory results as given in paper PMC6386482, “ASB20123: A novel C-type natriuretic peptide derivative for treatment of growth failure and dwarfism” (PLoS ONE, 2019).
Ends that are not written are not given here. Peptide text beside a SMILES is read from it.

Key:
[1] = test system: Crouzon syndrome mouse model; conditions: cited from earlier work
From the text: (§1) In the previous study, we designed and evaluated some CNP/ghrelin chimeric peptides as novel CNP derivatives. […] In the current study, we prepared another novel CNP/ghrelin chimeric peptide ASB20123 and evaluated its pharmacological activities. ASB20123 is comp ...

Fgfr3^ach mice = conditions: cited from earlier work
From the text: as §1

female ICR mice = test: Skeletal growth of mice given CNP(1–22) or human CNP(1–53) sc for 3 weeks; assay type: in vivo, mouse; conditions: subcutaneous administration for 3 weeks (S3 Fig)
From the text: Interstitial diffusion of macromolecules, such as HA and glycosaminoglycan, is affected by their physiochemical characteristics, including their size, charge, and hydrophilicity, as well as their interactions with the endogenous components present in the interstitium. Interaction between ASB20123 and the endogenous molecules might play a role in the diffusion and absorption processes. […] The C-terminal part of ASB20123 might interact with ECM components, such as HA and glycosaminoglycan, resulting in a delay of its absorption from the sc tissue to the circulation and improvement of its stability.
Supplementary file pone.0212680.s003.tif: S3 Fig Body weight and body length of female ICR mice subcutaneously administered CNP(1–22) and human CNP(1–53) for 3 weeks. (TIF) Click here for additional data file.

[2] = test system: neutral endopeptidase (NEP); conditions: cited from earlier work
[3] = PK of CNP immunoreactivity after single intravenous administration in rats; assay type: in vivo, rat
[4] = PK of CNP immunoreactivity after single subcutaneous administration in rats; assay type: in vivo, rat
[5] = Plasma CNP immunoreactivity after sc bolus in vehicles containing ECM in rats
Description: We prepared CNP(1–22) and ASB20123 dissolved in vehicles containing ECM and delivered them to rats as sc bolus injections at 0.58 mg/kg for evaluation of their in vivo effects (S2 Fig).

[6] = cited from earlier work
From the text: C-type natriuretic peptide (CNP) is a member of the natriuretic peptide (NP) family that also includes atrial natriuretic peptide (ANP) and brain natriuretic peptide (BNP). […] However, CNP is expressed in various tissues, such as the central nervous system, reproductive tract, bone, and endothelium of blood ...

[7] = mouse, in vivo
Description: Three-week-old juvenile female ICR mice (n = 5 or 10/group) received ASB20123 sc bolus injections once daily for 8 weeks. Seven-week-old male SD rats (n = 5/group) received ASB20123 as multiple sc bolus injections or a continuous sc infusion using an osmotic mini-pump (ALZET osmotic pump, Durect Corporation, USA) for 1 or 12 weeks. Growth rate of each animal was monitored throughout the treatment and washout periods. Body weight, body (naso-anal) length, and tail length were measured weekly, and femoral and tibial lengths were measured with digital calipers on the final day. Osteocalcin concentration in mouse serum was measured as a marker of bone formation using commercially available ELISA kits (Mouse Osteocalcin EIA kit, Biomedical Technologies Inc., USA). Anti-ASB20123 antibody in mouse serum was measured using commercially available ELISA kits (Protein detector ELISA Kit, Kirkegaard & Perry Laboratories, Inc., USA) and ASB20123. The blood samples were collected from the posterior vena cava at the end of the dosing period and centrifuged to obtain serum samples. CNP immunoreactivity in rat plasma was determined by RIA as mentioned in the method of PK studies. The blood samples were collected from cervical vein at 15 min after sc bolus dosing or before necropsy for animals given a continuous sc infusion.

[8] = anesthetized male SD rats, single iv 20 nmol/kg, plasma CNP immunoreactivity by RIA, mean of 3 rats
[9] = anesthetized male SD rats, single sc 50 nmol/kg, plasma CNP immunoreactivity by RIA, mean of 3 rats

## BMN-111
[1]
  Body length: increased the body length
Fgfr3^ach mice
  Body length: increased the body length

## CNP(1–53): 53-residue peptide generated from pro-CNP (DLRVDTKSRAAWARLLQEHPNARKYKGANKKGLSKGCFGLKLDRIGSMSGLGC; ends and bridges not checked; cysteine pairing not given here; UniProt P23582 74-126, looked up)
Female ICR mice
  Skeletal growth compared to CNP(1–22): more potently than that induced by CNP(1–22) administration
[2]
  Stability against neutral endopeptidase (NEP): resistant to proteolytic inactivation

## CC[C@H](C)[C@@H]1NC(=O)[C@H](CCCNC(=N)N)NC(=O)[C@H](CC(=O)O)NC(=O)[C@H](CC(C)C)NC(=O)[C@H](CCCCN)NC(=O)[C@H](CC(C)C)NC(=O)CNC(=O)[C@H](Cc2ccccc2)NC(=O)[C@@H](NC(=O)CNC(=O)[C@H](CCCCN)NC(=O)[C@H](CO)NC(=O)[C@H](CC(C)C)NC(=O)CN)CSSC[C@@H](C(=O)O)NC(=O)CNC(=O)[C@H](CC(C)C)NC(=O)CNC(=O)[C@H](CO)NC(=O)[C@H](CCSC)NC(=O)[C@H](CO)NC(=O)CNC1=O [CNP(1–22), C-type natriuretic peptide]
[3]; [8]
  AUC0→∞: 320 pmol・min/mL
  CLtot: 63.9 mL/min/kg
  MRT0→∞: 1.02 min
  T1/2: 1.42 min
  Vdss: 64.2 mL/kg
[4]; anesthetized male SD rats, single sc 50 nmol/kg, bioavailability, mean of 3 rats
  BA: 19%
[4]; [9]
  AUC0→∞: 152 pmol・min/mL
  Cmax: 9.02 pmol/mL
  MRT0→∞: 13.9 min
  T1/2: 10.0 min
  Tmax: 5.0 min
[5]; rats, sc bolus 0.58 mg/kg in vehicles containing ECM
  PK profile, effect of vehicle components: not affected by its vehicle components
[6]
  Clearance of exogenous peptide from the circulation: rapidly cleared from the circulation

## CC[C@H](C)[C@@H]1NC(=O)[C@H](CCCNC(=N)N)NC(=O)[C@H](CC(=O)O)NC(=O)[C@H](CC(C)C)NC(=O)[C@H](CCCCN)NC(=O)[C@H](CC(C)C)NC(=O)CNC(=O)[C@H](Cc2ccccc2)NC(=O)[C@@H](NC(=O)CNC(=O)[C@H](CCCCN)NC(=O)[C@H](CO)NC(=O)[C@H](CC(C)C)NC(=O)CN)CSSC[C@@H](C(=O)N[C@H](C(=O)N[C@@H](CCC(N)=O)C(=O)N[C@@H](CCC(N)=O)C(=O)N[C@@H](CCCNC(=N)N)C(=O)N[C@@H](CCCCN)C(=O)N[C@@H](CC(=O)O)C(=O)N[C@@H](CO)C(=O)N[C@@H](CCCCN)C(=O)N[C@@H](CCCCN)C(=O)N2CCC[C@H]2C(=O)N2CCC[C@H]2C(=O)N[C@@H](C)C(=O)N[C@@H](CCCCN)C(=O)N[C@@H](CC(C)C)C(=O)N[C@@H](CCC(N)=O)C(=O)N2CCC[C@H]2C(=O)N[C@@H](CCCNC(=N)N)C(=O)O)C(C)C)NC(=O)CNC(=O)[C@H](CC(C)C)NC(=O)CNC(=O)[C@H](CO)NC(=O)[C@H](CCSC)NC(=O)[C@H](CO)NC(=O)CNC1=O [ASB20123] (HELM PEPTIDE1{G.L.S.K.G.C.F.G.L.K.L.D.R.I.G.S.M.S.G.L.G.C.V.Q.Q.R.K.D.S.K.K.P.P.A.K.L.Q.P.R}$PEPTIDE1,PEPTIDE1,6:R3-22:R3$$$V2.0)
[3]; rat, in vivo, iv
  T1/2: 31.3 min
  Vdss: 429 mL/kg
  Vdss relative to that of CNP(1–22): 6.7 fold
[4]; rat, in vivo, sc
  T1/2: 32.1 min
  Tmax: 20.0 min
[7]
  Anti-ASB20123 antibody in serum: not detected
[5]; rat, in vivo, sc, 0.58 mg/kg
  AUC: higher than that when ASB20123 was dissolved in saline
  Time to reach the maximum plasma CNP concentration (Cmax): delayed
